Measured values taken from patent US20050222146A1, “N-substituted-n-sulfonylaminocyclopropane compounds and pharmaceutical use thereof” (priority 2003, published 2005).

Assays:
MMP-1 = molecular target: T1, MMP-1 (Homo sapiens, UniProt P03956); assay: MMP-1 inhibitory action, Type I collagen Activity Measurement kit (FITC-labeled collagen type I); type: biochemical; conditions: 37° C. for 3 hr, read-out: Experimental Example 2 IC50 MMP1
T1 sequence (P03956 100-469): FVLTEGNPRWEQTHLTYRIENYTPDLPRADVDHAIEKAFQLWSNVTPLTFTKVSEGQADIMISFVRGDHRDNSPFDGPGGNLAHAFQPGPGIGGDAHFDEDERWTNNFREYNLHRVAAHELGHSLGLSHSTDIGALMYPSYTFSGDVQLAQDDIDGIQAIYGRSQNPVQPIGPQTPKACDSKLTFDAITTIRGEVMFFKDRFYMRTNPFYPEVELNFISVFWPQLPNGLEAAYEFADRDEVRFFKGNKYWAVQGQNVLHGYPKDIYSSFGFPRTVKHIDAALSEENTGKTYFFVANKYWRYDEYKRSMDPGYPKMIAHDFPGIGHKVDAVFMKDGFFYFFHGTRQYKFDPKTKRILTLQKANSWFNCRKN
Protocol: For MMP-1 Assay, Type I collagen Activity Measurement kit (YAGAI YU-72013) modified to a 96-well plate format was used.
The principle of the kit is based on the property of collagen that becomes soluble in ethanol after being cleaved by MMP-1.
(§1) The enzyme and substrate were diluted with Tris-HCl buffer, and test compounds were diluted with dimethyl sulfoxide (DMSO).
The enzyme and test compounds were added into 96-well plate, and fluorescein isothiocianate (FITC)-labeled collagen type I was added as a substrate and the mixture was incubated at 37° C. for 3 hr.
The reaction was terminated by addition of Tris-HCl buffer containing ethanol. After centrifugation, the supernatant containing denatured substrate was transferred to another 96-well plate. The collagenase activity of MMP-1 was determined by measuring FITC fluorescence intensity (excitation wavelength 485 nm, emission wavelength 530 nm) of each well. The inhibitory activity of the compound in each well (%) was calculated based on the values of enzyme-free well and inhibitor-free well. The inhibitory activity of the compound was represented as IC50 (μM).

aggrecanase-1 = molecular target: T2, aggrecanase-1 (Homo sapiens, UniProt O75173); assay: Aggrecanase-1 inhibitory action, Particle Assay (GAG release from aggrecan-containing polyacrylamide particles); type: biochemical; conditions: 37° C. for 15 hr, read-out: Experimental Example 1 IC50 AG1
T2 sequence (O75173 213-837): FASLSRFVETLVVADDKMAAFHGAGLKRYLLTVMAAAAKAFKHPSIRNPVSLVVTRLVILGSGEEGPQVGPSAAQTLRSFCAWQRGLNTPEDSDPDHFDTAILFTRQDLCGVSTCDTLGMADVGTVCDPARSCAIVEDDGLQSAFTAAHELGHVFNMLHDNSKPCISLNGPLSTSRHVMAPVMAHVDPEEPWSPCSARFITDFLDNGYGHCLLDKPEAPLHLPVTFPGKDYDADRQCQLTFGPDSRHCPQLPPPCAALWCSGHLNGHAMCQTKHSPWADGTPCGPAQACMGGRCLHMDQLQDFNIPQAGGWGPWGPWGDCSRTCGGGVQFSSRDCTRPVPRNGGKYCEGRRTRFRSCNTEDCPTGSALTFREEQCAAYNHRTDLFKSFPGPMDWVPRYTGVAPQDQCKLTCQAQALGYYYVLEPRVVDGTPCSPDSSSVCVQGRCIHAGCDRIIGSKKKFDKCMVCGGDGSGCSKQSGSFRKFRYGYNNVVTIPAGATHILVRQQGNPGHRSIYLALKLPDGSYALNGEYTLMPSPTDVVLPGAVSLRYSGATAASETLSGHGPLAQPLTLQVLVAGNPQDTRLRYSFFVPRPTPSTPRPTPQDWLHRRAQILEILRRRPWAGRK
Protocol: Aggrecanase-1 Inhibitory Action
Particle Assay was used for determination of aggrecanase activity.
as §1
Test compounds and the enzyme were added into 96-well plate, and polyacrylamide particles containing aggrecan were added as a substrate and the mixture was incubated at 37° C. for 15 hr.
After incubation; the supernatant was transferred to another plate, and mixed with 1,9-dimethylmethylene blue. The absorbance at 595 nm was measured to quantify the amount of glycosaminoglycan (GAG) released in the reaction supernatant. Whale chondroitin sulfate was used as the standard of GAG. The inhibitory activity of the compound in each well (%) was calculated based on the values of enzyme-free well and inhibitor-free well. The inhibitory activity of the compound was represented as IC50 (μM).

| SMILES | IC50 (MMP-1) [µM] | IC50 (aggrecanase-1) [µM] |
| --- | --- | --- |
| N#Cc1ccccc1[C@@H]1C[C@@]1(C(=O)O)N(CC(=O)O)S(=O)(=O)c1ccc(-c2ccc(Cl)cc2)cc1 (relative stereo) [Example 1-28, (1R*,2S*)-1-[carboxymethyl-(4′-chloro-biphenyl-4-sulfonyl)-amino]-2-(2-cyano-phenyl)-cyclopropanecarboxylic acid] | ≥ 10 | < 1 |
| O=C(O)CN([C@]1(C(=O)O)C[C@H]1c1c(Cl)cccc1Cl)S(=O)(=O)c1ccc(-c2ccc(Cl)cc2)cc1 (relative stereo) [Example 1-29, (1R*,2S*)-1-[carboxymethyl-(4′-chloro-biphenyl-4-sulfonyl)-amino]-2-(2,6-dichloro-phenyl)-cyclopropanecarboxylic acid] | ≥ 10 | < 1 |
| N#Cc1ccc([C@@H]2C[C@@]2(C(=O)O)N(CC(=O)O)S(=O)(=O)c2ccc(-c3ccc(Cl)cc3)cc2)cc1 (relative stereo) [Example 1-30, (1R*,2S*)-1-[carboxymethyl-(4′-chloro-biphenyl-4-sulfonyl)-amino]-2-(4-cyano-phenyl)-cyclopropanecarboxylic acid] | ≥ 10 | < 1 |
| O=C(O)CN([C@]1(C(=O)O)C[C@H]1c1ccccc1Cc1ccccc1)S(=O)(=O)c1ccc(-c2ccc(Cl)cc2)cc1 (relative stereo) [Example 1-31, (1R*,2S*)-2-(2-benzyl-phenyl)-1-[carboxymethyl-(4′-chloro-biphenyl-4-sulfonyl)-amino]-cyclopropanecarboxylic acid] | ≥ 10 | < 0.1 |
| O=C(O)CN([C@]1(C(=O)O)C[C@H]1c1ccc(-c2ccccc2)cc1)S(=O)(=O)c1ccc(-c2ccc(Cl)cc2)cc1 (relative stereo) [Example 1-32, (1R*,2S*)-2-biphenyl-4-yl-1-[carboxymethyl-(4′-chloro-biphenyl-4-sulfonyl)-amino]-cyclopropanecarboxylic acid] | ≥ 10 | < 1 |
| O=C(O)CN([C@]1(C(=O)O)C[C@H]1c1ccccc1C(F)(F)F)S(=O)(=O)c1ccc(-c2ccc(Cl)cc2)cc1 (relative stereo) [Example 1-33, (1R*,2S*)-1-[carboxymethyl-(4′-chloro-biphenyl-4-sulfonyl)-amino]-2-(2-trifluoromethyl-phenyl)-cyclopropanecarboxylic acid] | ≥ 10 | < 1 |
| O=C(O)CN([C@]1(C(=O)O)C[C@H]1c1cccc(C(F)(F)F)c1)S(=O)(=O)c1ccc(-c2ccc(Cl)cc2)cc1 (relative stereo) [Example 1-34, (1R*,2S*)-1-[carboxymethyl-(4′-chloro-biphenyl-4-sulfonyl)-amino]-2-(3-trifluoromethyl-phenyl)-cyclopropanecarboxylic acid] | ≥ 10 | < 0.1 |
| O=C(O)CN([C@]1(C(=O)O)C[C@H]1c1cc(Cl)ccc1C(F)(F)F)S(=O)(=O)c1ccc(-c2ccc(Cl)cc2)cc1 (relative stereo) [Example 1-35, (1R*,2S*)-1-[carboxymethyl-(4′-chloro-biphenyl-4-sulfonyl)-amino]-2-(5-chloro-2-trifluoromethyl-phenyl)-cyclopropanecarboxylic acid] | ≥ 10 | < 1 |
| CC(C)(CN([C@]1(C(=O)O)C[C@H]1c1ccccc1)S(=O)(=O)c1ccc(-c2ccc(Cl)cc2)cc1)C(=O)O (relative stereo) [Example 1-37, (1R*,2S*)-1-[(2-carboxy-2-methyl-propyl)-(4′-chloro-biphenyl-4-sulfonyl)-amino]-2-phenyl-cyclopropanecarboxylic acid] | ≥ 10 | < 1 |
| CS(=O)(=O)NC(=O)CN([C@]1(C(=O)O)C[C@H]1c1ccccc1)S(=O)(=O)c1ccc(-c2ccc(Cl)cc2)cc1 (relative stereo) [Example 1-38, (1R*,2S*)-1-[(4′-chloro-biphenyl-4-sulfonyl)-(2-methanesulfonylamino-2-oxo-ethyl)-amino]-2-phenyl-cyclopropanecarboxylic acid] | ≥ 10 | < 1 |
| O=C(O)CN([C@]1(C(=O)O)C[C@H]1c1cccc(OCc2ccccc2)c1)S(=O)(=O)c1ccc(-c2ccc(Cl)cc2)cc1 (relative stereo) [Example 1-39, (1R*,2S*)-2-(3-benzyloxy-phenyl)-1-[carboxymethyl-(4′-chloro-biphenyl-4-sulfonyl)-amino]-cyclopropanecarboxylic acid] | ≥ 10 | < 0.1 |
| O=C(O)CN([C@]1(C(=O)O)C[C@H]1c1ccccc1OCc1ccccc1)S(=O)(=O)c1ccc(-c2ccc(Cl)cc2)cc1 (relative stereo) [Example 1-40, (1R*,2S*)-2-(2-benzyloxy-phenyl)-1-[carboxymethyl-(4′-chloro-biphenyl-4-sulfonyl)-amino]-cyclopropanecarboxylic acid] | ≥ 10 | < 0.1 |
| O=C(O)CN([C@]1(C(=O)O)C[C@H]1c1cccc(Cl)c1Cl)S(=O)(=O)c1ccc(-c2ccc(Cl)cc2)cc1 (relative stereo) [Example 1-41, (1R*,2S*)-1-[carboxymethyl-(4′-chloro-biphenyl-4-sulfonyl)-amino]-2-(2,3-dichloro-phenyl)-cyclopropanecarboxylic acid] | ≥ 10 | < 0.1 |
| O=C(O)CN([C@]1(C(=O)O)C[C@H]1c1ccccc1Oc1ccccc1)S(=O)(=O)c1ccc(-c2ccc(Cl)cc2)cc1 (relative stereo) [Example 1-42, (1R*,2S*)-1-[carboxymethyl-(4′-chloro-biphenyl-4-sulfonyl)-amino]-2-(2-phenoxy-phenyl)-cyclopropanecarboxylic acid] | ≥ 10 | < 0.1 |
| O=C(CN([C@]1(C(=O)O)C[C@H]1c1ccccc1)S(=O)(=O)c1ccc(-c2ccc(Cl)cc2)cc1)N1CC(O)C(O)C1 (relative stereo) [Example 1-43, (1R*,2S*)-1-{(4′-chloro-biphenyl-4-sulfonyl)-[2-(3,4-dihydroxy-pyrrolidin-1-yl)-2-oxo-ethyl]-amino}-2-phenyl-cyclopropanecarboxylic acid] | ≥ 10 | < 1 |
| O=C(O)CN([C@]1(C(=O)O)C[C@H]1c1cccc(Cc2ccccc2)c1)S(=O)(=O)c1ccc(-c2ccc(Cl)cc2)cc1 (relative stereo) [Example 1-44, (1R*, 2S*)-2-(3-benzyl-phenyl)-1-[carboxymethyl-(4′-chloro-biphenyl-4-sulfonyl)-amino]-cyclopropanecarboxylic acid] | ≥ 10 | < 0.1 |
| O=C(CN([C@]1(C(=O)O)C[C@H]1c1ccccc1)S(=O)(=O)c1ccc(-c2ccc(Cl)cc2)cc1)N1CCCC1 (relative stereo) [Example 1-45, (1R*,2S*)-1-[(4′-chloro-biphenyl-4-sulfonyl)-(2-oxo-2-pyrrolidin-1-yl-ethyl)-amino]-2-phenyl-cyclopropanecarboxylic acid] | ≥ 10 | < 1 |
| COC(=O)CN([C@]1(C(=O)O)C[C@H]1c1ccccc1)S(=O)(=O)c1ccc(-c2ccc(Cl)cc2)cc1 (relative stereo) [Example 1-46, (1R*,2S*)-1-[(4′-chloro-biphenyl-4-sulfonyl)-methoxycarbonylmethyl-amino]-2-phenyl-cyclopropanecarboxylic acid] | ≥ 10 | < 1 |
